{"source": "paper PMC13172357", "about": "(Nature Communications, 2026)", "key": {"[1]": {"tested_on": "Panc89 cells", "test": "Total proteome analysis, DDA mass spectrometry, Panc89 cells", "assay_type": "cell-based, H. sapiens", "details": "DDA Panc89, 5 µM, 6, 24 or 72 h", "description": "Following treatment, cells were harvested, washed twice with PBS, and pellets were flash frozen in liquid nitrogen before being stored at −80 °C. Samples were prepared using the single-pot, solid-phase-enhanced sample-preparation (SP3) strategy. All buffers and solutions were prepared with mass spectrometry (MS)-grade water (Honeywell). Cell pellets were taken up in 100 µL 1x sample buffer (50 mM Hepes pH 8.0, 1% (wt/v) SDS, 1% (v/v) NP-40, 10 mM TCEP, 40 mM chloroacetamide) and samples were heated at 90 °C for 5 min prior to sonication with a Bioruptor UCD-300 (Diagenode) for ten cycles of 1 min pulse and 30 s pause at high power. The samples were then supplemented with Benzonase (20 U/sample) and sonified for 5 min in a water bath (Bandelin) followed by 30 min incubation at […].\nThe protein extracts were then centrifuged (20000 ×g, RT, 40 min) and the protein concentration of the cleared lysates was determined using the Pierce 660 nm Protein Assay Reagent (#22660; Thermo Scientific) with the Ionic Detergent Compatibility Reagent (#22663; Thermo Scientific) according to the manufacturers’ instructions. Next, 15 µg of total protein per sample in a volume of 100 µL sample buffer was transferred to a 500 µL 96-well plate and treated with 7 U of benzonase (#71206; Merck Millipore) in dilution buffer (20 mM Hepes pH 8.0, 2 mM MgCl2) at 37 °C for 30 min with agitation at 1500 rpm. After Benzonase treatment samples were heated to 90 °C for 5 min and after cooling down to room temperature, iodoacetamide to a final concentration of 10 mM was added for complete alkylation of cysteines (37 °C, 15 min, 1000 rpm, in the dark).\nThen, 3 µL of a 50 µg/µL 1:1 mixture of hydrophilic (#45152105050250) and hydrophobic (#65152105050250) carboxylate modified Sera-Mag SpeedBeads (Cytiva), that were washed twice with MS-grade water, were added to the samples. The next steps were carried out at room temperature unless noted otherwise. Afterwards, the samples were mixed shortly (1 min, 1000 rpm) and collected by short centrifugation (10 s, 200 ×g). […]"}, "[2]": {"biological_target": "T1, human USP7 full length protein (Homo sapiens, UniProt Q93009)", "T1 construct": "human USP7 full length protein", "T1 sequence (Q93009 whole entry)": "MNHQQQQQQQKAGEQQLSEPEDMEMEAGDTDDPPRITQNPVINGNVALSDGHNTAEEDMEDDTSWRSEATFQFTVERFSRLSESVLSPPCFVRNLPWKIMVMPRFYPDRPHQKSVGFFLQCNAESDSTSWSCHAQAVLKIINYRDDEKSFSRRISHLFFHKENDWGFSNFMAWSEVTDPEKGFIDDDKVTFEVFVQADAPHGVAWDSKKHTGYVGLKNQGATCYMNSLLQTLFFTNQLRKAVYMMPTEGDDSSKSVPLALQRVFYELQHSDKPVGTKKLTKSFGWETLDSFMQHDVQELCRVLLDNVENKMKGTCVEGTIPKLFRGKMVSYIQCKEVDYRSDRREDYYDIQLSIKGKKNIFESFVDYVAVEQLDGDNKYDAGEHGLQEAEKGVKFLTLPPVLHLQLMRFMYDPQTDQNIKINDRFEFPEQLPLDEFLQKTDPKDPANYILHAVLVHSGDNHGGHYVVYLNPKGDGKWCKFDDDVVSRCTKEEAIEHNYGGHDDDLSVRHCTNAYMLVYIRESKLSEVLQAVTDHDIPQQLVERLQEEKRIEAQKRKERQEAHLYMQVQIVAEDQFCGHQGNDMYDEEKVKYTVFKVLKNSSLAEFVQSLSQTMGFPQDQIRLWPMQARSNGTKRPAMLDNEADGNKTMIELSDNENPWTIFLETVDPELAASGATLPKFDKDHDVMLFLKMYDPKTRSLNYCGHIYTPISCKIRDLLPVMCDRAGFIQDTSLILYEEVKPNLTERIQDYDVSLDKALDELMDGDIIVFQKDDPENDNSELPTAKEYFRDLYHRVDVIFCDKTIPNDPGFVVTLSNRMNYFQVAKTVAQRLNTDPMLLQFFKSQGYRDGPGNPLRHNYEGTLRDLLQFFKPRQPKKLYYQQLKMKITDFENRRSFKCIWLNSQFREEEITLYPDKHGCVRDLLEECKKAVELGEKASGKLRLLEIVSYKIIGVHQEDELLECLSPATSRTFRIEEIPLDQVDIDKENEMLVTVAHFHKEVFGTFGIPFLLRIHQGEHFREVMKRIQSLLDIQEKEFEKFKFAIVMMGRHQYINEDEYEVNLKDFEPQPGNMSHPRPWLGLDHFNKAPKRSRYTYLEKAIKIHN", "test": "USP7 inhibition assay (Ubiquitin-Rhodamine110Gly cleavage)", "assay_type": "biochemical", "details": "Ub-RhoG cleavage, read-out: IC50 (half-maximal inhibition)", "description": "USP7 inhibitors in DMSO were diluted in UbR buffer (40 mM Tris-HCl pH 8, 150 mM NaCl, 1 mM TCEP, 0.1 mg/mL BSA, 0.01% Tween20) to a concentration of 80 μM (4x). This stock was then further diluted in an 11-times serial dilution in UbR buffer containing 4% DMSO (4x). To this was added the same volume of human USP7 full length protein[59] […] The assay was initiated upon addition of 10 μL per well of Ubiquitin-Rhodamine110Gly (Ub-RhoG) (100 nM in UbR buffer, 2x). […] Normalization was carried out using samples featuring either no inhibitor or no enzyme as respective controls. […] Slopes of fluorescence over time curves were determined with Microsoft Excel through linear regression using the first 15 min of each measurement."}, "[3]": {"biological_target": "HiBiT-USP7 (Homo sapiens, UniProt Q93009)", "sequence (Q93009 whole entry, the tested form may be a part)": "as the sequence (Q93009 whole entry) above", "test": "HiBiT USP7 degradation assay, MV4-11 cells", "assay_type": "cell-based", "details": "MV4-11 HiBiT-USP7, 6 h and 24 h", "description": "HiBiT-USP7 construct was cloned by extraction of USP7 fragment from plasmid pQHA-USP7 WT puroR (Addgene #46753) using appropriate restriction sites. The USP7 fragment was then ligated into the pRRL-PGK-HiBiT entry vector to generate the plasmid.\nLentiviral infection was used to generate stable a MV4-11 HiBiT cell line. Lentivirus was produced using plasmids psPAX2, pMD2.G, and HiBiT-USP7 plasmid in HEK293 cells. MV4-11 cells were infected with filtered virus supernatant and selected after 48 h of infection for the generation of the stable MV4-11^HiBiT-USP7 cell line.\nThe assay was performed as described previously. Briefly, MV4-11^HiBiT-USP7 cells were seeded and treated with compounds for the indicated time. Nano-Glo HiBiT Lytic Detection System (Promega) was used for the assay and luminescence was measured on a Tecan Spark microplate reader (Tecan). DC50 values were calculated using the sigmoidal dose-response (four parameters) equation in GraphPad Prism and are given as the concentration where 50% of the total signal was remaining. Dmax values are given as the maximum degradation observed at any concentration."}, "[4]": {"tested_on": "Ma-Mel-47 USP7 K.O. cells", "test": "Medium color switch (images), Ma-Mel-47 USP7 K.O. cells", "assay_type": "cell-based, human", "details": "Ma-Mel-47 USP7-KO, 72 h, 5 µM NK192, 10 µM FT671, 1 µM NK266"}, "[5]": {"tested_on": "Panc89 cells", "test": "Confluence measurement (cell growth), Panc89", "assay_type": "cell-based, human", "details": "Panc89, 1-10 µM, 72 h, 25 mM or 5 mM D-glucose"}, "[6]": {"tested_on": "proteins enriched from Panc89 lysate", "test": "Competitive pulldown with NK264-functionalized beads, mass spectrometry", "assay_type": "binding, human", "details": "10 µM competitor", "description": "The next steps were carried out at room temperature unless noted otherwise. Afterwards, the samples were mixed shortly (1 min, 1000 rpm) and collected by short centrifugation (10 s, 200 ×g). Protein binding was induced by the addition of an equal volume of pure ethanol (10 min, 1000 rpm), the beads were collected by a brief centrifugation step (10 s, 200 ×g) and the plate was placed on a magnetic stand. Beads were allowed to bind for at least 5 min before the supernatant was removed. The beads were then taken up in 180 µL 80% ethanol and transferred to a fresh multiwell plate.\nSamples were incubated at 37 °C for 19 h while shaking (1300 rpm). On the next day, the samples were briefly centrifuged (10 s, 200 ×g) and placed on a magnet for 5 min. The clear solution containing the tryptic peptides was transferred to a fresh multiwell plate. The beads were taken up in 47 µL 25 mM ammonium bicarbonate and incubated while shaking (10 min, 1000 rpm)."}}, "note": "pIC50: −log10 of the molar value."}
{"smiles": "C[C@H](CC(=O)N1CCC(O)(Cn2cnc3c(cnn3-c3ccc(F)cc3)c2=O)CC1)c1ccccc1", "note": "[NK192]", "values": [{"measurement": "USP7 protein level changes (in words)", "setting": "[1]", "result": "did not lead to USP7 protein level changes beyond the significance threshold"}, {"measurement": "pIC50", "setting": "[2]", "result": 7.70}, {"measurement": "HiBiT-USP7 levels (in words)", "setting": "[3]", "result": "partial reduction of USP7 levels"}, {"measurement": "Change of media color (in words)", "setting": "[4]", "result": "the same change of media color"}, {"measurement": "Cell growth (in words)", "setting": "[5]", "result": "not affected"}, {"measurement": "Proteome-wide target specificity (in words)", "setting": "[6]", "result": "very high specificity for USP7"}]}
